Source: patent US20230134986A1, “GLUCOSE TRIPTOLIDE CONJUGATES AND USES THEREOF” (The Johns Hopkins University, priority 2020, published 2023)
Where two headings read alike, the source gives them in different places.

Key:
[1] = test system: HepG2; test: HepG2 proliferation under hypoxia ([3H]-thymidine incorporation); type: cell-based, human; conditions: HepG2, 1% O2, 48 h post treatment
[2] = test system: Rpb1 in 293T WT cells; test: RPB1 degradation in 293T WT cells, western blot; type: cell-based, human; conditions: 0.1 mM triptolide (so in the source); 0.1 μM)
Source text: (§1) Cells and culture conditions. Primary astrocytes (Lonza, Walkersville, Md.; ABM™ Basal Media with AGM™ SingleQuots™ Supplement Pack), fibroblast (ATCC; Fibroblast Basal Medium (ATCC© PCS-201-030™) with Fibroblast Growth Kit-Serum-free (ATCC© PCS-201-040™)), airway epithelial cell (ATCC; Airway Epithelial Cell Basal Medium (ATCC© PCS-300-030™) with Bronchial Epithelial Cell Growth Kit (ATCC© PCS-300-040™)), renal proximal tubule (ATCC; Renal Epithelial Cell Basal Medium (ATCC© PCS-400-030™) with Renal Epithelial Cell Growth Kit (ATCC© PCS-400-040™)), prostate epithelial cell (Lonza; PrEGM™ BulletKit™) and mammary epithelial cell (Lonza; MEBM™ BulletKit™) were kept in a humidified incubator at 37° C. adjusted to 5% CO2. […]
(§2) Western blot analysis. […] Antibody-protein complexes were detected using enhanced chemiluminescence (ECL) immunoblotting detection reagent (EMD Millipore).

[3] = target: T1, TFIIH (Homo sapiens, UniProt P19447); test: DNA-dependent ATPase activity assay of TFIIH; type: biochemical; conditions: 200 nM triptolide
T1 construct: made in house
Procedure: ATPase activity assay. The TFIIH complex was purified and its DNA-dependent ATPase assay was performed as previously described (Titov et al. (2011) Nat. Chem. Biol. 7:182-88). Briefly, a 10-μl reaction mixture contained 20 mM Tris (pH 7.9), 4 mM MgCl2, 1 μM of ATP, 0.1 μCi [^γ-^32P]ATP (3000 Ci/mmol), 100 μg/ml BSA, 100 nM RNA Polymerase II promoter positive control DNA, 1 nM TFIIH and indicated concentrations of triptolide or its analogs. The reactions were started by either addition of TFIIH for 2 hr and stopped by addition of 2 μl of 0.5 M EDTA. An aliquot of 1 μl reaction mixture was spotted on PEI-cellulose (sigma) and the chromatogram was developed with 0.5 M LiCi and 1 M HCOOH. The percent of ATP hydrolysis was quantified using a Typhoon FLA 9500 Variable Imager (GE Healthcare).

[4] = test system: PC3 cells; test: PC3 proliferation under hypoxia or normoxia ([3H]-thymidine incorporation); type: cell-based, human; conditions: for IC50: Homo sapiens, PC-3, 48 h, 48 h post treatment, read-out: IC50
Procedure: (§3) Proliferation and viability assays. [^3H]-thymidine incorporation. HEK293T cells (10,000 cells/well) were seeded into 96-well plates then cultured in DMEM plus 10% FBS and 1% penicillin/streptomycin at 37° C. with 5% CO2 overnight. Drugs were added at indicated concentrations and incubation was continued for an additional 24 h. For hypoxia, PC3 (5,000 cells/well) were exposed to 1% O2 (Airgas) in a humidified hypoxia chamber (Billups-Rothenberg) in 37° C. for 48 h prior to drug exposure for 48 h. Treated cells were then pulsed using an aliquot of 1 μCi of [^3H]-thymidine (Perkin Elmer) per well for an additional 6 h. Radiolabelled cells were harvested onto a printed Filtermat A glass fiber filter (Perkin Elmer) using a Tomtec Harvester 96 Mach III M. Betaplate Scint (Perkin Elmer) scintillation fluid was added to radiolabelled filters followed by scintillation counting on Microbeta2 LumiJET Microplate Counter (Perkin Elmer).

[5] = test system: MDA MB231 cells; test: MDA MB231 proliferation under hypoxia ([3H]-thymidine incorporation); type: cell-based, human; conditions: MDA MB231, 1% O2, 48 h post treatment
[6] = lethal case dosed with 18 mg/m2 F60008; cited from earlier work
[7] = test system: MCF-7; test: MCF-7 proliferation under hypoxia ([3H]-thymidine incorporation); type: cell-based, human; conditions: MCF-7, 1% O2, 48 h post treatment
[8] = test system: T7115 (C342T XPB knock-in HEK293T cells); test: Proliferation of XPB C342T knock-in cell line T7115 ([3H]-thymidine incorporation); type: cell-based, human; conditions: C342T XPB knock-in versus isogenic WT 293T
Source text: as §1

[9] = test system: HeLa; test: HeLa proliferation under hypoxia ([3H]-thymidine incorporation); type: cell-based, human; conditions: 1% O2, 48 h post treatment
[10] = test system: HEK 293T cells; test: HEK293T cell proliferation assay ([3H]-thymidine incorporation); type: cell-based, human; conditions: Homo sapiens; anti-proliferative activity, HEK 293T cells, 24 h drug exposure; read-out: IC50 ± SEM
Source text: Cells and culture conditions. Primary astrocytes (Lonza, Walkersville, Md.; ABM™ Basal Media with AGM™ SingleQuots™ Supplement Pack), fibroblast (ATCC; Fibroblast Basal Medium (ATCC© PCS-201-030™) with Fibroblast Growth Kit-Serum-free (ATCC© PCS-201-040™)), airway epithelial cell (ATCC; Airway Epithelial Cell Basal Medium (ATCC© PCS-300-030™) with Bronchial Epithelial Cell Growth Kit (ATCC© PCS-300-040™)), renal proximal tubule (ATCC; Renal Epithelial Cell Basal Medium (ATCC© PCS-400-030™) with Renal Epithelial Cell Growth Kit (ATCC© PCS-400-040™)), prostate epithelial cell (Lonza; PrEGM™ BulletKit™) and mammary epithelial cell (Lonza; MEBM™ BulletKit™) were kept in a humidified incubator at 37° C. adjusted to 5% CO2. Prostate (PC3, LNCaP, DU-145), breast (MDA-MB-231, MDA-MB-453, SK-BR-3), head and neck (A253, Detroit 562, SCC-25), melanoma (SK-Mel-3, SK-Mel-1, RPMI-7951), pancreatic (CfPAC-1, BxPC3, SW1990), lung (A549, NCI-H1299, NCI-H1437) and liver (SNU-475, SK-HEP-1, SNU-387) cancer cell lines were obtained from ATCC and cultured in their respective media (prostate cells: RPMI-1640, MDA-MB-231: RPMI-1640, MDA-MB-453: Leibovitz's L-15, SK-BR-3: McCoy's 5a, A253: McCoy's 5a, Detroit 562: EMEM, SCC-25: DMEM, SK-Mel-3: McCoy's 5a, SK-Mel-1: EMEM, RPMI-7951: EMEM), CfPAC-1: IMDM, BxPC3: RPMI-1640, SW1990: Leibovitz's L-15), A549: F-12K, NCI-H1299: RPMI-1640, NCI-H1437: RPMI-1640, SNU-475: RPMI-1640, SK-HEP-1: EMEM, SNU-387: RPMI-1640. All media were supplemented with 10% (vol/vol) filtered fetal bovine serum (FBS, Invitrogen, Carlsbad, Calif.), 1% penicillin/streptomycin (Invitrogen) and maintained in a humidified incubator at 37° C. with 5% CO2 except for MDA-MB-453 and SW1990 grown at 37° C. without CO2 control. Wild type (ATCC) and C342T XPB knock-in cells (named T7115) of Human Embryonic Kidney 293T (HEK293T), HeLa (ATCC) were cultured in DMEM (GIBCO) with 10% (vol/vol) filtered fetal bovine serum (FBS, Invitrogen, Carlsbad, Calif.), 1% penicillin/streptomycin (Invitrogen).
as §3

[11] = test system: RPB1 in C342T XPB mutant cell line; test: RPB1 degradation in C342T XPB knock-in cells, western blot; type: cell-based, human; conditions: XPB C342T cells, 0.1 mM triptolide (so in the source); 0.1 μM)
Source text: as §1, §2

[12] = test system: HeLa cells; test: Apoptosis signaling in HeLa cells (nuclear fragmentation, cytochrome c, caspase 3, PARP1); type: cell-based, human; conditions: co-treatment with higher concentrations of SP
Procedure: (§4) Western blot analysis. Whole cell lysates were prepared by adding lysis buffer [4% SDS, 20% glycerol, 10% 2-mercaptoethanol, 0.004% bromophenol blue, 0.125 M Tris-HCl (pH 6.8)] to the cell pellets for 30 minutes in ice followed by centrifugation at 12,000×g for 10 minutes then boiling for 5 minutes. For isolation of cytosolic and mitochondrial fractions of cytochrome C, cell pellets were resuspended in CLAMI buffer (250 mM sucrose, 70 mM KCl, […] digitonin in 1×PBS, protease inhibitor cocktail (1 tablet/10 ml CLAMI buffer)) then incubated on ice for 5 minutes. After centrifugation at 12,000×g for 5 minutes at 4° C., supernatant (cytoplasmic fraction) was collected and the pellet resuspended in lysis buffer as described above. Proteins were then separated by SDS-PAGE and transferred to nitrocellulose membranes (Bio-Rad). After blocking at room temperature for 1 h, membranes were incubated at 4′C overnight with the primary antibodies including anti-Rpb1 (Santa Cruz Biotechnology), anti-XPB (Biotechne), anti-Actin (Developmental Studies Hybridoma Bank), anti-GAPDH (Santa Cruz Biotechnology), anti-cytochrome C (Santa Cruz Biotechnology), anti-PARP1 (Santa Cruz Biotechnology), anti-cleaved caspase 3 (Cell Signaling Technology), anti-VDAC (ProteinTech), anti-HIF-1[…] (BD sciences), and anti-GLUT1 (Santa Cruz Biotechnology) antibodies followed by incubation with horseradish peroxidase-conjugated anti-mouse or anti-rabbit IgG (GE Healthcare) at room temperature for 2 hours. Antibody-protein complexes were detected using enhanced chemiluminescence (ECL) immunoblotting detection reagent (EMD Millipore).
Immunocytochemistry and cytochemistry. HeLa or PC3 cells (2×10^5) were seeded on a MatTek glass bottom culture dish (Fisher Scientific, Pittsburgh, Pa., USA) and allowed to adhere for 24 h. Cells were then treated with either DMSO or drugs for 6 or 24 h then fixed with 4% paraformaldehyde, permeabilized using 1×PBS with 0.5% triton X 100 then probed for endogenous RNA Polymerase II catalytic subunit Rpb1 or HIF-1α using anti-RNAPII (Santa Cruz Biotechnology) and anti-HIF-1α (BD sciences) antibodies, respectively. Detection was then done using anti-mouse Alexa Fluor 488 (Invitrogen). For nuclear staining, fixed and permeabilized cells were incubated in DAPI (ThermoFisher) or Hoechst 33258 (Sigma) for 30 minutes prior to imaging. Glucose uptake was monitored by incubating cells in 200 μM 2-NBDG (ThermoFisher) for 6 hours prior to fixation. Fluorescence was observed under the Nikon Eclipse TE200 Inverted microscope (Nikon Instruments Inc., Melville, N.Y., USA). ImageJ software (NIH, Bethesda, Md., USA; http://imagej.nih.gov/ij/index.html) was used to measure intracellular protein levels in immuno-cytochemistry samples (Li et al. (2015) Toxicological Sciences: an Official Journal of the Society of Toxicology 143:196-208). Rpb1 levels were measured using the MEASURE feature of ImageJ where all the background signals were subtracted from the intergrated density of nuclear Rpb1.

[13] = test system: RPB1 (catalytic subunit of RNAPII); test: RPB1 (RNAPII) degradation in HeLa cells, immunostaining and western blot; type: cell-based, human
Procedure: as §4
(§5) Immunocytochemistry and cytochemistry. […] Glucose uptake was monitored by incubating cells in 200 μM 2-NBDG (ThermoFisher) for 6 hours prior to fixation. Fluorescence was observed under the Nikon Eclipse TE200 Inverted microscope (Nikon Instruments Inc., Melville, N.Y., USA). […] Rpb1 levels were measured using the MEASURE feature of ImageJ where all the background signals were subtracted from the intergrated density of nuclear Rpb1.

[14] = target: T2, XPB (Homo sapiens, UniProt P19447); test: XPB degradation in cells, western blot; type: cell-based; conditions: 10 mM SP (so in the source)
T2 construct: spironolactone induces the degradation of endogenous XPB in cells; endogenous in cells
Procedure: (§6) Western blot analysis. Whole cell lysates were prepared by adding lysis buffer [4% SDS, 20% glycerol, 10% 2-mercaptoethanol, 0.004% bromophenol blue, 0.125 M Tris-HCl (pH 6.8)] to the cell pellets for 30 minutes in ice followed by centrifugation at 12,000×g for 10 minutes then boiling for 5 minutes. For isolation of cytosolic and mitochondrial fractions of cytochrome C, cell pellets were resuspended in CLAMI buffer (250 mM sucrose, 70 mM KCl, […] digitonin in 1×PBS, protease inhibitor cocktail (1 tablet/10 ml CLAMI buffer)) then incubated on ice for 5 minutes. After centrifugation at 12,000×g for 5 minutes at 4° C., supernatant (cytoplasmic fraction) was collected and the pellet resuspended in lysis buffer as described above. Proteins were then separated by SDS-PAGE and transferred to nitrocellulose membranes (Bio-Rad). […] Antibody-protein complexes were detected using enhanced chemiluminescence (ECL) immunoblotting detection reagent (EMD Millipore).

[15] = test system: RPB1 (RNAPII) in PC3 cells; test: RPB1 degradation in PC3 cells under hypoxia, immunocytochemistry and western blot; type: cell-based, human; conditions: PC3, hypoxic (1% O2), 10 mM WZB117 plus 3 mM compound 1 (so in the source); μM)
Procedure: as §6, §5

T2 sequence (P19447 whole entry): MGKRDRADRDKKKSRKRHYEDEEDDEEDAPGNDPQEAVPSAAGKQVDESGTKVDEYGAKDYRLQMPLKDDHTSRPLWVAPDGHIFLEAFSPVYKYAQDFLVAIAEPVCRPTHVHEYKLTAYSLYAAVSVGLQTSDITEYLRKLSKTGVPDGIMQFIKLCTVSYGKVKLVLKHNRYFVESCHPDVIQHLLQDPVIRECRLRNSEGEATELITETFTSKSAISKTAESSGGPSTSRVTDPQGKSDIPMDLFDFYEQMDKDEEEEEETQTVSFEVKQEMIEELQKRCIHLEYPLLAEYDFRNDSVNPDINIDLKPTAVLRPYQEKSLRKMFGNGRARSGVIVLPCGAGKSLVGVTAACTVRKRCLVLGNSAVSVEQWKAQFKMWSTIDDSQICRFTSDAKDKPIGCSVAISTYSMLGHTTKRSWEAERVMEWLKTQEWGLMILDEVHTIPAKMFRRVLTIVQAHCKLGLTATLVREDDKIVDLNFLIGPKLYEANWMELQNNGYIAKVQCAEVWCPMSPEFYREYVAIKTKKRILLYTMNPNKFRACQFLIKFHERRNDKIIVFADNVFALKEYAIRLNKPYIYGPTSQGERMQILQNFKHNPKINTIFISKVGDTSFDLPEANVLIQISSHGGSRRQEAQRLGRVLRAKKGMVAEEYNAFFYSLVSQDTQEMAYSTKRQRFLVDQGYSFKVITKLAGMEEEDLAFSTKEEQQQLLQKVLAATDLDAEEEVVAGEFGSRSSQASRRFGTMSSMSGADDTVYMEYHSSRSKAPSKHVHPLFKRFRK

## CC(C)[C@]12O[C@H]1[C@@H]1O[C@]13[C@]1(O[C@H]1C[C@H]1C4=C(CC[C@@]13C)C(=O)OC4)[C@@H]2O [TPL, (1S,2S,4S,5S,7R,8R,9S,11S,13 S)-8-hydroxy-1-methyl-7-propan-2-yl-3,6,10,16 tetraoxaheptacyclo[11.7.0.02,4.02,9.05,7.09,11.014,18] icos-14(18)-en-17-one, reference compound]
[1]
  effect of hypoxia on anti-proliferative effect: showed resistance upon hypoxia
[2]
  degradation of Rpb1: leads to the degradation of the Rpb1 subunit
[3]
  inhibition of ATPase activity of TFIIH: effectively suppresses activity
[3]; listed as triptolide
  inhibition of ATPase activity of TFIIH: nearly completely inhibited
[4]; PC3, hypoxic conditions (1% O2)
  IC50: 1.5 nM
[4]; PC3, normoxic conditions (20% O2)
  IC50: 4.5 nM
[4]; PC3, hypoxia versus normoxia
  fold enhancement of anti-proliferative effect during hypoxia: three-fold
[5]
  effect of hypoxia on anti-proliferative effect: modest anti-proliferative effect
[6]
  Maximum serum levels: 58.5 ng/mL
  Maximum serum levels (molar): ~0.16 mM
[7]
  effect of hypoxia on anti-proliferative effect: modest anti-proliferative effect
[8]
  sensitivity of T7115 mutant line (proliferation): resistant
[9]
  effect of hypoxia on anti-proliferative effect: modest anti-proliferative effect
[10]
  IC50: 5.6 nM
[11]
  Rpb1 level: Rpb1 levels resemble DMSO control

## CC(=O)S[C@@H]1CC2=CC(=O)CC[C@]2(C)[C@H]2CC[C@@]3(C)[C@@H](CC[C@@]34CCC(=O)O4)[C@H]12 [spironolactone]
[12]
  effect on compound 1-induced PARP1 cleavage: prevented PARP1 cleavage
[13]; 10 mM spironolactone alone (so in the source); 10 μM)
  endogenous RNAPII (RPB1) level: do not affect protein levels
[13]; pre-treatment with 10 mM spironolactone (so in the source), then 1 mM compound 1
  rescue of RNAPII from compound 1-induced degradation: rescues endogenous RNAPII
[14]
  degradation of XPB: caused degradation of the majority of XPB

## O=C(Oc1cccc(F)c1OC(=O)c1cccc(O)c1)c1cccc(O)c1 [WZB117, reference compound]
[15]
  effect on compound 1-induced RNAPII degradation: abolished the rapid degradation of endogenous RNAPII
